Measurements: US8093028B2, “Engineered glycosyltransferases with expanded substrate specificity” (Wisconsin Alumni Research Foundation, priority 2007, dated 2012)

Key:
Assay type in all cases: biochemical
OleD S132F [1] = biological target: T1, OleD S132F (Streptomyces antibioticus, UniProt Q53685, P55A/R82V/R83E/S132F/T84P); assay: Rate of glucoside formation with acceptors (RP-HPLC); conditions: for Rate of glucoside formation, S132F: 200 μM acceptor, 1 mM UDPG
T1 construct: made in house; host or cells: E. coli (site-directed mutant of pET28/OleD)
Description: (§1) Enzyme assays for the determination of glycosyl transfer rate to FIG. 1: 4, Table 1: 27-32 were carried out in a total volume of 500 μl 50 mM Tris-HCl (pH8.0) containing 5 mM MgCl2, 200 μM acceptor, 1 mM UDPG, and 50 μg pure enzyme. Aliquots (100 μl) were removed between 0 and 30 min, at which time product formation was still linear with respect to time, and quenched with 90 μl of an 8:1 mixture of ice-cold MeOH/HCl, and centrifuged at 14,000 rpm for 10 min. Supernatants were analyzed by analytical reverse-phase HPLC with a 250 mm×4.6 mm Gemini […] C18 column (Phenomenex, Torrance, Calif.) using a gradient of 10-90% CH3CN in 0.1% trifluoroacetic acid (TFA)/H2O in 20 min at 1 ml/min, with detection at 254 nm. HPLC peak areas were integrated, and the product concentration calculated as a percent of the total peak area. Product identity was confirmed by co-elution with a commercial standard when available and, in all cases, by LC-MS (FIG. 8).
(§2) Reaction conditions for assay of macrolide glycosylation were identical to that for FIG. 1: 1, except that typically, less enzyme was used (1-10 μg) and reactions were quenched with an equal volume of ice-cold MeOH. Centrifuged reaction mixtures were analyzed by analytical reverse-phase HPLC with a Gemini 5μ C18 column (Phenomenex) using a gradient of 0-90% CH3CN in 50 mM NH3COOH over 30 min at 1 ml/min. Products and acceptor macrolide were detected by evaporative light scattering detection (ELSD) using a drift tube temperature of 105° C. and a nitrogen flow of 2.5 ml/min. All products were characterized by APCI LC-MS on an Agilent 1100 Series LC/MSD quadrapole mass spectrometer connected to a UV detector. Quenched reaction mixtures were analyzed by reverse-phase HPLC with a 10 mm×4.6 mm Zorbax Extend 5μ C18 Analytical Guard Column (Agilent Technologies) using an isocratic gradient of 80% MeOH in 2 min at 1 ml/min, with detection at 254 nm.
(§3) Enzyme reactions were carried out in a total volume of 500 μl 50 mM Tris-HCl (pH8.0) containing 5 mM MgCl2, 200 μM acceptor, 1 mM UDPG, and 50 μg pure enzyme. Aliquots (100 μl) were removed between 0 and 30 min, and quenched with 90 μl of an 8:1 mixture of ice-cold MeOH/HCl for activity towards FIG. 1: 4, Table 1: 27-32, or with 90 μl of ice-cold MeOH for activity towards FIG. 1: 1, and the samples centrifuged at 14,000 rpm for 10 min.
(§4) For determination of activity to FIG. 1: 4, Table 1: 27-32, supernatants were analyzed by analytical reverse-phase HPLC with a Gemini 5μ C18 column (Phenomenex) using a gradient of 10-90% CH3CN in 0.1% trifluoroacetic acid (TFA)/H2O in 20 min, with detection at 254 nm. HPLC peak areas were integrated, and the product concentration calculated as a percent of the total peak area. All products were characterized by LC-MS. Mass spectra were obtained using electrospray ionization on an Agilent 1100 HPLC-MSD SL quadrapole mass spectrometer connected to a UV/Vis diode array detector. For LC-MS analysis, quenched reaction mixtures (see below) were analyzed by analytical reverse-phase HPLC with a 250 mm×4.6 mm Gemini 5μ C18 column (Phenomenex, Torrance, Calif.) using a gradient of 10-90% CH3CN in 0.1% formic acid/H2O in 20 min at 1 ml/min, with detection at 254 nm.
as §2, with “For determination” for “Reaction conditions for assay”, “activity toward” for “macrolide glycosylation were identical to that for”, “centrifuged” for “except that typically, less enzyme was used (1-10 μg) and reactions were quenched with an equal volume of ice-cold MeOH. Centrifuged”, “Compounds FIG. 1: 1” for “Products”, “3” for “acceptor macrolide”

OleD A242V [2] = biological target: T2, OleD A242V (Streptomyces antibioticus, UniProt Q53685, A242V/P55A/R82V/R83E/T84P); assay: as above; conditions: 200 μM acceptor, 1 mM UDPG
T2 construct: made in house; host or cells: E. coli BL21(DE3)pLysS (error-prone PCR clone in pET28a)
Description: as §1, §2, §3, §4
as §2, with “For determination” for “Reaction conditions for assay”, “activity toward” for “macrolide glycosylation were identical to that for”, “centrifuged” for “except that typically, less enzyme was used (1-10 μg) and reactions were quenched with an equal volume of ice-cold MeOH. Centrifuged”, “Compounds FIG. 1: 1” for “Products”, “3” for “acceptor macrolide”

WT OleD = biological target: T3, WT OleD (Streptomyces antibioticus, UniProt Q53685, P55A/R82V/R83E/T84P); assay: as above; conditions: 200 μM acceptor, 1 mM UDPG
T3 construct: made in house; host or cells: E. coli BL21(DE3)pLysS, plasmid pET28/OleD
Description: as §1, §2, §3, §4
as §2, with “For determination” for “Reaction conditions for assay”, “activity toward” for “macrolide glycosylation were identical to that for”, “centrifuged” for “except that typically, less enzyme was used (1-10 μg) and reactions were quenched with an equal volume of ice-cold MeOH. Centrifuged”, “Compounds FIG. 1: 1” for “Products”, “3” for “acceptor macrolide”

OleD P67T [3] = biological target: T4, OleD P67T (Streptomyces antibioticus, UniProt Q53685, P55A/P67T/R82V/R83E/T84P); assay: as above; conditions: 200 μM acceptor, 1 mM UDPG
T4 construct: made in house; host or cells: E. coli (site-directed mutant of pET28/OleD)
Description: as §1, §2, §3, §4
as §2, with “For determination” for “Reaction conditions for assay”, “activity toward” for “macrolide glycosylation were identical to that for”, “centrifuged” for “except that typically, less enzyme was used (1-10 μg) and reactions were quenched with an equal volume of ice-cold MeOH. Centrifuged”, “Compounds FIG. 1: 1” for “Products”, “3” for “acceptor macrolide”

OleD P67T/S132F/A242V [4] = biological target: T5, OleD P67T/S132F/A242V (Streptomyces antibioticus, UniProt Q53685, A242V/P67T/S132F); assay: as above; conditions: for Rate of glucoside formation, P67T/S132F/A242V: 200 μM acceptor, 1 mM UDPG; for Fold-improvement compared to WT OleD: rate of P67T/S132F/A242V versus WT
T5 construct: made in house; host or cells: E. coli (site-directed mutant of pET28/OleD)
Description: as §1, with “8). […]” for “8).”
as §3, §4
as §2, with “For determination” for “Reaction conditions for assay”, “activity toward” for “macrolide glycosylation were identical to that for”, “centrifuged” for “except that typically, less enzyme was used (1-10 μg) and reactions were quenched with an equal volume of ice-cold MeOH. Centrifuged”, “Compounds FIG. 1: 1” for “Products”, “3” for “acceptor macrolide”

OleD S132F [5] = biological target: T1, OleD S132F; conditions: Table 3; 4-Me-umb (4) as acceptor, end point assay
Description: (§5) Reactions were carried out as described above with the following exceptions. The total volume was 50 μl and the acceptor FIG. 1: 4 was at 50 μM and the NDP-sugar at ˜500 μM. The NDP-sugars were used directly from RmlA-catalyzed reactions. […] Reactions were incubated at 25° C. for 3 h.
(§6) The total volume was 50 μl and the acceptor FIG. 1: 4 or FIG. 1: 1 was at 50 μM and the NDP-sugar at ˜500 μM. The NDP-sugars were used directly from RmlA-catalyzed reactions. […] Reactions were incubated at 25° C. for 3 h.
(§7) For activity toward FIG. 1: 4, aliquots (25 μl) were quenched with 25 μl of an 8:1 mixture of ice-cold MeOH/HCl, and centrifuged at 14,000 rpm for 10 min. […] HPLC peak areas were integrated, and the product concentration calculated as a percent of the total peak area. All products were characterized by LC-MS. Mass spectra were obtained using electrospray ionization on an Agilent 1100 HPLC-MSD SL quadrapole mass spectrometer connected to a UV/Vis diode array detector.

OleD P67T/S132F/A242V [6] = biological target: T5, OleD P67T/S132F/A242V; conditions: for Conversion rates (%), P67T/S132F/A242V: Table 3, 4-Me-umb (4) as acceptor, end point assay
Description: as §5, §6, §7

OleD A242V [7] = biological target: T2, OleD A242V; conditions: Table 3; 4-Me-umb (4) as acceptor, end point assay
Description: as §5, §6, §7

OleD P67T [8] = biological target: T4, OleD P67T; conditions: Table 3; 4-Me-umb (4) as acceptor, end point assay
Description: as §5, §6, §7

Molecule	Rate of glucoside formation, S132F (OleD S132F [1])	Rate of glucoside formation, A242V (OleD A242V [2])	Rate of glucoside formation, WT (WT OleD)	Rate of glucoside formation, WT (WT OleD; listed as Table 1: 28)	Rate of glucoside formation, P67T (OleD P67T [3])	Rate of glucoside formation, P67T/S132F/A242V (OleD P67T/S132F/A242V [4])	Fold-improvement compared to WT OleD (OleD P67T/S132F/A242V [4]; UDPG donor)	Fold-improvement compared to WT OleD (OleD P67T/S132F/A242V [4]; UDPG donor, listed as Table 1: 27)	Conversion rates (%), S132F (OleD S132F [5])	Conversion Rate (%), P67T/S132F/A242V (OleD P67T/S132F/A242V [6]; Table 2, acceptor 4 at 50 μM, NDP-sugar ~500 μM, 25° C., 3 h)	Conversion rates (%), P67T/S132F/A242V (OleD P67T/S132F/A242V [6])	Conversion rates (%), A242V (OleD A242V [7])	Conversion rates (%), P67T (OleD P67T [8])	activity, fold more than WT OleD (OleD S132F [1]; UDPG donor)	glucosylation rate, fold less than the WT enzyme (OleD P67T/S132F/A242V [4]; UDPG donor)
O=C(O)c1cc2ccc(O)cc2oc1=O [7-hydroxycoumarin-3-carboxylic acid (28), 7-hydroxycoumarin-3-carboxylic acid]	0.022 mmols/product formed/min/μg enzyme × 10^3	0.01 mmols/product formed/min/μg enzyme × 10^3	0.01 mmols/product formed/min/μg enzyme × 10^3	essentially non-detectable substrates	0.022 mmols/product formed/min/μg enzyme × 10^3	0.62 mmols/product formed/min/μg enzyme × 10^3	62 fold								
O=C(O)Cc1cc(=O)oc2cc(O)ccc12 [7-hydroxycoumarin-4-acetic acid (27), 7-hydroxycoumarin-4-acetic acid]	0.08 mmols/product formed/min/μg enzyme × 10^3	0.16 mmols/product formed/min/μg enzyme × 10^3	essentially non-detectable substrates		0.22 mmols/product formed/min/μg enzyme × 10^3	3.6 mmols/product formed/min/μg enzyme × 10^3	>180 fold	> 180 fold							
O=c1ccn([C@@H]2O[C@H](COP(=O)(O)OP(=O)(O)O[C@H]3OC[C@@H](O)[C@H](O)[C@H]3O)[C@@H](O)[C@H]2O)c(=O)[nH]1 [UDP-xylose (7), UDP-xylose]									1.5%	31%	31%	2%	2%		
O=c1c(-c2ccc(O)cc2)coc2cc(O)ccc12 [daidzein (31), daidzein]	5.5 mmols/product formed/min/μg enzyme × 10^3	8.5 mmols/product formed/min/μg enzyme × 10^3	4.2 mmols/product formed/min/μg enzyme × 10^3		16.0 mmols/product formed/min/μg enzyme × 10^3	24 mmols/product formed/min/μg enzyme × 10^3	5.7 fold								
O=c1c(-c2ccc(O)cc2)coc2cc(O)cc(O)c12 [genistein (32), genistein]	8.8 mmols/product formed/min/μg enzyme × 10^3	14.1 mmols/product formed/min/μg enzyme × 10^3	3.4 mmols/product formed/min/μg enzyme × 10^3		28.8 mmols/product formed/min/μg enzyme × 10^3	26 mmols/product formed/min/μg enzyme × 10^3	7.7 fold								
O=c1c(O)c(-c2ccc(O)cc2)oc2cc(O)cc(O)c12 [kaempferol (30), kaempferol]	23 mmols/product formed/min/μg enzyme × 10^3	15.3 mmols/product formed/min/μg enzyme × 10^3	13.2 mmols/product formed/min/μg enzyme × 10^3		99.9 mmols/product formed/min/μg enzyme × 10^3	28 mmols/product formed/min/μg enzyme × 10^3	2.1 fold								
CO[C@H]1C[C@H](O[C@H]2[C@H](C)[C@@H](O[C@@H]3O[C@H](C)C[C@H](N(C)C)[C@H]3O)[C@@H](C)C[C@@]3(CO3)C(=O)[C@H](C)[C@@H](O)[C@@H](C)[C@@H](C)OC(=O)[C@@H]2C)O[C@@H](C)[C@@H]1O [oleandomycin (1), oleandomycin]	1487 mmols/product formed/min/μg enzyme × 10^3	70 mmols/product formed/min/μg enzyme × 10^3	700 mmols/product formed/min/μg enzyme × 10^3		20 mmols/product formed/min/μg enzyme × 10^3	13 mmols/product formed/min/μg enzyme × 10^3	0.02 fold							~2 fold	~54 fold
UDP-2-amino-glc [UDP-2-amino-glc (19)]											24%				
